These are literature values, as cited in patent US10786601B2, “Composition comprising hyaluronic acid and mepivacaine” (Teoxane, priority 2013, dated 2020).

As for `Cc1cccc(C)c1NC(=O)C1CCCCN1C` (racemic) [mepivacaine], the pKa was 7,6.
